Data as given in patent publication US11040009B2, “Expansile crosslinked polymersome for ph-sensitive delivery of anticancer drugs” (Mayo Foundation for Medical Education and Research, priority 2016, dated 2021).

Key:
[1] = tested on: HeLa cells; assay: Cellular uptake by DOX fluorescence imaging; type: cell-based; conditions: 10 μg/mL
Description: HeLa cells were co-cultured with DOX-loaded polymersomes in DMEM at a drug concentration of 10 μg/mL, as described in Example 6. At time points of 1, 2, 4 hours, the culture medium was removed and cells were washed with PBS three times and then fixed in 4% paraformaldehyde. After 10 min, paraformaldehyde was removed and cells were washed three times with PBS then stained with DAPI (4′,6-diamidino-2-phenylindole) for 2 min. DOX fluorescence from polymersomes and DAPI fluorescence from cellular nuclei were visualized and photographed by Axiovert 25 Zeiss light microscope. DOX fluorescence from polymersomes appeared red, and DAPI fluorescence from cellular nuclei appeared blue.
Cellular uptake of DOX-PS particles were investigated through imaging of DOX fluorescence after 1, 3 and 5 hours of co-culture with HeLa cells. […] The first, second, and third rows correspond to incubation times of 1, 3, and 5 hours respectively.

[2] = tested on: HeLa cells; assay: Cell viability by MTS assay; type: cell-based; conditions: 10 μg/mL, FIG. 10
Description: HeLa cells were used as a model cancer cell for cytotoxicity evaluation. Trypsinized HeLa cells were seeded onto 48-well tissue culture polystyrene (TCPS) plates at 10,000 cells cm^−2. Cells were then cultured in Dulbecco's Modified Eagle's Medium (DMEM) supplemented with FBS, 100 U/mL penicillin, 2 mM L-glutamine, and 0.1 mg/mL streptomycin for 24 h to allow adhesion. To evaluate the cytotoxicity of PEG-Fu-DiTT polymersomes, empty samples without loaded drugs were prepared, dialyzed against phosphate-buffered saline (PBS) for 2 days, and lyophilized for 3 days. The dried polymersomes were then incubated with HeLa cells at concentrations of 0.1, 0.5, 1.0 and 2.0 mg/mL for 3 days. Wells seeded with the same HeLa cell density but without added polymersomes were used as positive controls. The relative cell densities in each group were determined by MTS assay (CellTiter 96 Aqueous One Solution, Promega, Madison, Wis.) by comparing the optical density (OD) value to that of positive controls (which were set at 100% cell density). To evaluate the cancer killing effect, similar cell culture procedures were used by adding DOX-loaded polymersomes or free drugs at concentrations of 0.01, 0.1, 0.5, 1, 5, 10 and 50 μg/mL.

COc1cccc2c1C(=O)c1c(O)c3c(c(O)c1C2=O)C[C@@](O)(C(=O)CO)C[C@@H]3O[C@H]1C[C@H](N)[C@H](O)[C@H](C)O1 [unencapsulated DOX, doxorubicin]
DOX fluorescence in cells ([1]; 1 hour): red fluorescence
DOX fluorescence in cells ([1]; 3 hour): slight increase in intensity
DOX fluorescence in cells ([1]; 5 hour): slight increase in intensity
effect on cancer cell viability [2]: inhibition effect
